The text below walks through data of patent US12441768B2, “Compositions and methods for treating endometriosis” (EndoMet Biosciences, Inc., priority 2018, dated 2025).

The target in one data set is T1, β-catenin (Homo sapiens, UniProt P35222).
T1 sequence (P35222 1-781): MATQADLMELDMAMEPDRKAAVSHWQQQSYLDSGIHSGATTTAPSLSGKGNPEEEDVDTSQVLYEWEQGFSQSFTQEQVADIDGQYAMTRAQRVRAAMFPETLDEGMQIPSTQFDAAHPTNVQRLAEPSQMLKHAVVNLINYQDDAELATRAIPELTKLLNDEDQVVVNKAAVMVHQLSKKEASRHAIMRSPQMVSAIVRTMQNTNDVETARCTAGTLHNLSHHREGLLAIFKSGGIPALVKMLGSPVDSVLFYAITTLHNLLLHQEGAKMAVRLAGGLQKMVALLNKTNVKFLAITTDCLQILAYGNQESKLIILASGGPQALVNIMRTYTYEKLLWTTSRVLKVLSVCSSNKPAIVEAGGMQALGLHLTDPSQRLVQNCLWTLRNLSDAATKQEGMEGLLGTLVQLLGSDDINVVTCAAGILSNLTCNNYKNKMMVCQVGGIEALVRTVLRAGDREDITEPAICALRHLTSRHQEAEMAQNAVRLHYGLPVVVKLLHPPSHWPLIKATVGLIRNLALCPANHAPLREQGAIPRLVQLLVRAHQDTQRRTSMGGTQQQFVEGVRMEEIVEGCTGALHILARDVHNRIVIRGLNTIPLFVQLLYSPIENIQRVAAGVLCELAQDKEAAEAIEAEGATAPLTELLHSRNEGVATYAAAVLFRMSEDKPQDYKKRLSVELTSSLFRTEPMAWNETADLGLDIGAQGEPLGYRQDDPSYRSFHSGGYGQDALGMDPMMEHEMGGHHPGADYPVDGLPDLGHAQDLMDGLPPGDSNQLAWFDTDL
Put plainly: KD50 measurement using competitive fluorescence polarization (FP) with labelled TCF4. Format: binding. The settings on record: fluorescence polarization, β-catenin; for Kd: read-out: β-Cat FP KD. Put shortly: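 Polarization readout (470 nm excitation, 520 nm emission) tracks loss of labelled TCF4 binding to β-catenin as test compound competes. Conditions were 5 nM tracer, 100 nM β-catenin, room temperature, compound serially diluted from 10 nM to 30 uM; run in triplicate experiments.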
A general note: Polarisation of emitted light reports the rotation of a fluorescent probe.

The target in data set [1] is Wnt-responsive promoter (TCF/LEF). Kind of data set: Wnt-dependent luciferase reporter assay. Format: cell-based, murine. Put shortly:
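Murine 3T3 fibroblasts carrying a TCF/LEF-driven luciferase reporter, stimulated with Wnt3a in the presence of increasing peptide concentrations or vehicle. Luminescence inhibition gave EC50 values in uM.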
On the technique in general: In a reporter assay the amount or activity of a reporter protein is the signal.

For data set [2] the following is noted: % Viability non-Wnt responsive cells.

Where a SMILES comes first, the peptide text is derived from it.

Take `CC[C@H](C)[C@H](NC(=O)[C@H](CC(C)C)NC(=O)[C@@H](NC(=O)[C@H](Cc1c[nH]c2ccccc12)NC(=O)[C@@H](N)Cc1c[nH]c2ccccc12)[C@@H](C)CC)C(=O)N[C@@H](CO)C(=O)N[C@@H](Cc1ccccc1)C(=O)N[C@@H](Cc1c[nH]c2ccccc12)C(=O)NCC(=O)O` [compound 127] (H-WWILISFWG-OH): at β-catenin, the “β-Cat FP Hill slope” value is listed as 1 and the Kd – broadly, a measure of binding affinity in units of concentration – was in the range of 0.4 to 1 µM. Also, in data set [1], the EC50 – broadly, the concentration needed to bring the measured effect to its halfway point – was in the range of 7.5 to 15 µM. Further, the viability (usually a read-out of living cells in per cent, often relative to untreated cells) in data set [2] worked out at 120%.
For `CC[C@H](C)[C@H](NC(=O)[C@H](CC(C)C)NC(=O)[C@H](Cc1ccccc1)NC(=O)[C@@H](N)Cc1c[nH]c2ccccc12)C(=O)N[C@@H](CO)C(=O)N[C@@H](Cc1ccccc1)C(=O)N[C@@H](Cc1c[nH]c2ccccc12)C(N)=O` [compound 98] (H-WFLISFW-NH2), at β-catenin, the “β-Cat FP Hill slope” value was 1.02 and the Kd lay within 1 to 10 µM. This compound had an EC50 in data set [1] greater than 30 µM. In addition, the viability in data set [2] stood at 96%.
In the case of `CC[C@H](C)[C@@H]1NC(=O)[C@H](CC(C)C)NC(=O)[C@H](Cc2ccccc2)NC(=O)[C@H](Cc2c[nH]c3ccccc23)NC(=O)[C@@H](N)CCCCNC(=O)C[C@@H](C(=O)O)NC(=O)[C@H](Cc2c[nH]c3ccccc23)NC(=O)[C@H](C)NC(=O)[C@H](CS)NC1=O` [compound 168] (HELM PEPTIDE1{K.W.F.L.I.C.A.W.D}$PEPTIDE1,PEPTIDE1,1:R3-9:R3$$$V2.0), on β-catenin, the “β-Cat FP Hill slope” value turned out to be 0.7 and the Kd is 1 to 10 µM. This compound showed an EC50 in data set [1] of less than 7.5 µM. Further, in data set [2], the viability amounted to 99.1%.
`CC[C@H](C)[C@H](NC(=O)[C@H](CC(C)C)NC(=O)[C@H](Cc1ccccc1)NC(=O)[C@H](Cc1c[nH]c2ccccc12)NC(=O)[C@H](CCSC)NC(=O)[C@H](CCCNC(=N)N)NC(=O)[C@H](CO)NC(=O)[C@@H](N)CC(=O)O)C(=O)N[C@@H](CO)C(=O)N[C@@H](Cc1ccccc1)C(=O)N[C@@H](Cc1c[nH]c2ccccc12)C(N)=O` [compound 85] (H-DSRMWFLISFW-NH2): the Kd on β-catenin is greater than 30 µM. For the same compound, the EC50 in data set [1] is greater than 30 µM. Also, the viability in data set [2] came out at 107%.
Regarding `CC[C@H](C)[C@H](NC(=O)[C@H](CC(C)C)NC(=O)[C@H](Cc1ccccc1)NC(=O)[C@H](Cc1c[nH]c2ccccc12)NC(=O)[C@H](CCSC)NC(=O)[C@H](CCCNC(=N)N)NC(=O)[C@H](CC(N)=O)NC(=O)[C@@H](N)CCSC)C(=O)N[C@@H](CO)C(=O)N[C@@H](Cc1ccccc1)C(=O)N[C@@H](Cc1c[nH]c2ccccc12)C(=O)NCC(=O)O` [compound 61] (H-MNRMWFLISFWG-OH), the Kd on β-catenin was greater than 30 µM. For the same compound, the EC50 in data set [1] is 7.5 to 15 µM. The viability in data set [2] was determined as 100%.
In the case of `CC[C@H](C)[C@H](NC(=O)[C@H](CC(C)C)NC(=O)[C@H](Cc1ccccc1)NC(=O)[C@H](Cc1c[nH]c2ccccc12)NC(=O)[C@@H](N)CCSC)C(=O)N[C@@H](CO)C(=O)N[C@@H](Cc1ccccc1)C(=O)N[C@@H](Cc1c[nH]c2ccccc12)C(=O)N[C@@H](C)C(=O)O` [compound 162] (H-MWFLISFWA-OH), the Kd at β-catenin was greater than 30 µM. Also, the EC50 in data set [1] fell in the range of 7.5 to 15 µM. Further, the viability in data set [2] was determined as 104%.
`CC[C@H](C)[C@H](NC(=O)[C@@H]1CCC(=O)NCCCC[C@H](N)C(=O)N[C@@H](Cc2c[nH]c3ccccc23)C(=O)N[C@@H](Cc2ccccc2)C(=O)N1)C(=O)N[C@@H](CO)C(=O)N[C@@H](Cc1ccccc1)C(=O)N[C@@H](Cc1c[nH]c2ccccc12)C(=O)NCC(=O)O` [compound 208] (HELM PEPTIDE1{K.W.F.E.I.S.F.W.G}$PEPTIDE1,PEPTIDE1,1:R3-4:R3$$$V2.0): on β-catenin, the “β-Cat FP Hill slope” value amounted to 0.69 and the Kd was in the range of 1 to 10 µM. Further, the EC50 in data set [1] lay within 7.5 to 15 µM. The viability in data set [2] was 93.4%.
Turning to `CC[C@H](C)[C@H](NC(=O)[C@H](CC(C)C)NC(=O)[C@H](Cc1ccccc1)NC(=O)[C@H](C)N(C)C(=O)[C@H](CCSC)NC(=O)[C@H](CCCNC(=N)N)NC(=O)[C@H](CO)NC(=O)[C@@H](N)CCSC)C(=O)N[C@@H](CO)C(=O)N[C@@H](Cc1ccccc1)C(=O)N[C@@H](Cc1c[nH]c2ccccc12)C(=O)NCC(=O)O` [compound 50] (HELM PEPTIDE1{M.S.R.M.[meA].F.L.I.S.F.W.G}$$$$V2.0), at β-catenin, the “β-Cat FP Hill slope” value came to 0.76 and the Kd lay within 1 to 10 µM. The compound also yielded an EC50 in data set [1] greater than 30 µM. In addition, the viability in data set [2] is 96.7%.
The corresponding values for `CC[C@H](C)[C@H](NC(=O)[C@H](CC(C)C)NC(=O)[C@H](CC(C)C)NC(=O)[C@H](Cc1c[nH]c2ccccc12)NC(=O)[C@H](CCSC)NC(C)=O)C(=O)N[C@@H](CO)C(=O)N[C@@H](Cc1ccccc1)C(=O)N[C@@H](Cc1c[nH]c2ccccc12)C(=O)NCC(=O)O` [compound 218] (Ac-MWLLISFWG-OH) are 1.85, less than 0.4 µM, less than 7.5 µM and 90.8%.
On to `CC[C@H](C)[C@H](NC(=O)[C@H](CC(C)C)NC(=O)[C@H](Cc1ccccc1)NC(=O)[C@H](Cc1c[nH]c2ccccc12)NC(=O)[C@@H](N)CCSC)C(=O)N[C@@H](C)C(=O)N[C@@H](C)C(=O)N[C@@H](Cc1c[nH]c2ccccc12)C(=O)NCC(=O)O` [compound 212] (H-MWFLIAAWG-OH), for which, at β-catenin, the “β-Cat FP Hill slope” value was 1.05 and the Kd is 0.4 to 1 µM. For the same compound, in data set [1], the EC50 was less than 7.5 µM. Also, the viability in data set [2] was 99.3%.
Consider `CC[C@H](C)[C@H](NC(=O)[C@H](CC(C)C)NC(=O)[C@H](Cc1ccccc1)NC(=O)[C@H](Cc1c[nH]c2ccccc12)NC(=O)[C@H](CCSC)NC(=O)[C@H](CCCNC(=N)N)NC(=O)[C@H](CO)NC(=O)[C@@H](N)Cc1c[nH]c2ccccc12)C(=O)N[C@@H](CO)C(=O)N[C@@H](Cc1ccccc1)C(=O)N[C@@H](Cc1c[nH]c2ccccc12)C(N)=O` [compound 79] (H-WSRMWFLISFW-NH2), for which, at β-catenin, the Kd was greater than 30 µM. Moreover, in data set [1], the EC50 was greater than 30 µM. Besides, the viability in data set [2] came out at 98.8%.
In the case of `CC[C@H](C)[C@H](NC(=O)[C@H](CC(C)C)NC(=O)[C@H](Cc1ccccc1)NC(=O)[C@@H](N)Cc1c[nH]c2ccccc12)C(=O)N[C@H](C(=O)N[C@H](C(=O)N[C@@H](Cc1c[nH]c2ccccc12)C(=O)O)[C@@H](C)O)[C@@H](C)O` [compound 100] (H-WFLITTW-OH), at β-catenin, the “β-Cat FP Hill slope” value worked out at 2.8 and the Kd fell in the range of 1 to 10 µM. This compound displayed an EC50 in data set [1] of 7.5 to 15 µM. Moreover, the viability in data set [2] came to 102%.
On to `CC[C@H](C)[C@H](NC(=O)[C@H](CC(C)C)NC(=O)[C@H](Cc1ccccc1)NC(=O)[C@H](Cc1c[nH]c2ccccc12)NC(=O)[C@H](CCSC)NC(=O)[C@H](CCCNC(=N)N)NC(=O)[C@H](CO)NC(=O)[C@@H](N)CCSC)C(=O)N[C@@H](CO)C(=O)N[C@@H](Cc1ccccc1)C(=O)N[C@@H](Cc1c[nH]c2ccccc12)C(=O)N[C@@H](CCCNC(=N)N)C(=O)NCC(=O)O` [compound 58] (H-MSRMWFLISFWRG-OH), for which the Kd on β-catenin is greater than 30 µM. Moreover, the concentration giving a half-maximal response (EC50) in data set [1] lay in the range of 22.5 to 30 µM. For the same compound, the viability in data set [2] turned out to be 106%.
